Laboratory results taken from BindingDB's records for doi:10.7270/Q25B012X (Burnham Center For Chemical Genomics, 2012).

Target: Protein Wnt-3a (Mus musculus, UniProt P27467)
Sequence (P27467 whole entry): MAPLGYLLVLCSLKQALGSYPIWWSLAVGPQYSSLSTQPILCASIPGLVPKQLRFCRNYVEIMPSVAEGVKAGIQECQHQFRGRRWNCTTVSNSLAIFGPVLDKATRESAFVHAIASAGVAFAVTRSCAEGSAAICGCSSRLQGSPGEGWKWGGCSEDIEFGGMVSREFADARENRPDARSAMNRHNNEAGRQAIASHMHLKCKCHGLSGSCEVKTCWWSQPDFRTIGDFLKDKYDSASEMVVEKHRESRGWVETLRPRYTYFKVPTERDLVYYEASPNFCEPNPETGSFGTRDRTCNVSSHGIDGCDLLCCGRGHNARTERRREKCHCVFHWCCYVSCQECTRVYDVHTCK

Structure (SMILES)	IC50
CC(C)(C)c1ccc(C(=O)NC(=S)Nc2ccc(N3CCOCC3)cc2)cc1	> 50 µM
O=C(NC1CCCC1)c1cc(COc2ccc3ncccc3c2)on1	> 50 µM
CCN1C(=O)CCN(C2CCCC2)c2nc(Nc3ccc(C(=O)NC4CCN(C)CC4)cc3OC)ncc21	> 50 µM
Cc1ccc(-c2csc(NC(=O)c3c(C)noc3C)n2)s1	> 50 µM
COc1cccc2nc3c(C(=O)NCCN(C)C)cccc3cc12	> 50 µM
C=CCN1C(=O)C(=NNC(=S)Nc2cccc(C)c2)c2ccccc21 [1-(3-methylphenyl)-3-[(Z)-(2-oxidanylidene-1-prop-2-enyl-indol-3-ylidene)amino]thiourea]	29.2 µM
Cc1cccc(C)c1N=C(S)N(CCN1CCCCCC1)Cc1ccco1 [1-[2-(1-azepanyl)ethyl]-3-(2,6-dimethylphenyl)-1-(2-furanylmethyl)thiourea]	> 50 µM
O=C(C[n+]1cc(-c2ccccc2)n2c1CCCCC2)c1ccc(Cl)cc1 [1-[2-(4-Chloro-phenyl)-2-oxo-ethyl]-3-phenyl-6,7,8,9-tetrahydro-5H-imidazo[1,2-a]azepin-1-ium]	> 50 µM
CC(=O)N1c2ccc(S(=O)(=O)N3CCC(C(=O)N4CCCCC4)CC3)cc2CC1C (configuration not stated) [1-[2-methyl-5-(4-piperidin-1-ylcarbonylpiperidin-1-yl)sulfonyl-2,3-dihydroindol-1-yl]ethanone]	> 50 µM
Brc1ccc(-c2csc(N3CCCCCC3)n2)cc1 [1-[4-(4-bromophenyl)-1,3-thiazol-2-yl]azepane]	> 12.5 µM
CCCCn1c(SCc2c(C)noc2C)nc2cc(S(N)(=O)=O)ccc21 [1-butyl-2-[(3,5-dimethyl-1,2-oxazol-4-yl)methylsulfanyl]benzimidazole-5-sulfonamide]	> 50 µM
Cc1ccc(O)c(NC(=O)COc2cc(C)ccc2C)c1 [2-(2,5-dimethylphenoxy)-N-(2-hydroxy-5-methylphenyl)acetamide]	> 50 µM
Cc1ccc(C2=C(CC(=O)O)C(=O)CC2)cc1 [2-[2-(4-methylphenyl)-5-oxidanylidene-cyclopenten-1-yl]ethanoic acid]	> 50 µM
COc1ccc(-c2c[n+](CC(=O)c3ccccc3)c3n2CCCCC3)cc1 [2-[3-(4-methoxyphenyl)-6,7,8,9-tetrahydro-5H-imidazo[1,2-a]azepin-1-ium-1-yl]-1-phenyl-ethanone;bromide]	> 50 µM
COc1cc(C(=O)NC2CCN(C)CC2)ccc1Nc1ncc2c(n1)N(Cc1ccccc1)CCC(=O)N2C [3-methoxy-4-[[5-methyl-6-oxo-9-(phenylmethyl)-7,8-dihydropyrimido[4,5-b][1,4]diazepin-2-yl]amino]-N-(1-methyl-4-piperidinyl)benzamide]	> 50 µM
CC(C)(C)OC(=O)N1CCC(c2cc(-c3cccs3)n[nH]2)CC1 [4-(3-thiophen-2-yl-1H-pyrazol-5-yl)-1-piperidinecarboxylic acid tert-butyl ester]	> 50 µM
Cc1nc2sccn2c1-c1csc(NCc2ccccc2)n1 [4-(6-methyl-5-imidazo[2,1-b]thiazolyl)-N-(phenylmethyl)-2-thiazolamine]	> 50 µM
O=C(Nc1ccncc1)c1ccc(-c2ccccc2)cc1 [4-phenyl-N-(4-pyridyl)benzamide]	> 50 µM
CCc1cc(C(=O)NC2CCCN(Cc3ccccc3F)C2)n(C)n1 (configuration not stated) [5-ethyl-N-[1-[(2-fluorophenyl)methyl]piperidin-3-yl]-2-methyl-pyrazole-3-carboxamide]	> 50 µM
O=C1NC(=Cc2ccc(O)cc2)C(=O)C1=CNCc1ccccc1 [(3Z,5Z)-3-[(benzylamino)methylidene]-5-[(4-hydroxyphenyl)methylidene]pyrrolidine-2,4-dione]	7.28 µM
Cc1nc2ccccc2c2oc(C(=O)N3CCN(C4CCCCC4)CC3)cc12 [(4-cyclohexylpiperazin-1-yl)-(4-methylfuro[3,2-c]quinolin-2-yl)methanone]	> 50 µM
CCCCCCCOc1ccc(OC(=O)c2cccnc2)cc1 [(4-heptoxyphenyl) pyridine-3-carboxylate]	> 12.5 µM
CCCCCCCOc1ccc(OC(=O)c2ccncc2)cc1 [(4-heptoxyphenyl) pyridine-4-carboxylate]	> 12.5 µM

Structure (SMILES)	IC50
Cc1cc(N=NCc2ccc(O)cc2O)nc(-n2nc(C)cc2C)n1 [(4E)-4-[[2-[2-(3,5-dimethylpyrazol-1-yl)-6-methyl-pyrimidin-4-yl]hydrazinyl]methylidene]-3-oxidanyl-cyclohexa-2,5-dien-1-one]	41.3 µM
CCOc1ccc(-n2c(O)c(CN=Nc3nc(C)cc(C)n3)c3ccccc3c2=O)cc1 [(4Z)-4-[[(4,6-dimethyl-2-pyrimidinyl)hydrazo]methylidene]-2-(4-ethoxyphenyl)isoquinoline-1,3-dione]	11.2 µM
COCCNC(=O)CSCc1nc(-c2ccc(SC)cc2)oc1C [MLS000089367]	> 50 µM
CCn1c(=O)cc(SCC(=O)N2CCN(C3CCCCC3)CC2)c2ccccc21 [MLS000092496]	> 50 µM
CCCN(CCC)CCNC(=O)c1cc2c(=O)n(C)c3ccccc3c2n1C [MLS000118109]	> 50 µM
O=C(Nc1cc2c3c(c1)C1CCCC1CN3CC1CCCC21)c1ccc([N+](=O)[O-])cc1 (configuration not stated) [MLS000324904]	> 12.5 µM
C[N+]1=C(CC=Nc2ccccc2)C(C)(C)c2ccccc21 [MLS000390698]	> 50 µM
CC1=CC(C)C2(COC(c3ccc[n+](C)c3)OC2)C(C)C1 (configuration not stated) [MLS000717774]	> 50 µM
CC(=O)c1ccc(-[n+]2cc(-c3ccc(C(C)(C)C)cc3)n3c2SCCC3)cc1 [MLS001018012]	> 50 µM
COc1ccc(C(=O)C[n+]2cc(-c3ccc(OC)cc3)n3c2CCCC3)cc1 [MLS001018126]	> 50 µM
Clc1ccc(-[n+]2cc(-c3ccc(Br)cc3)n3c2CCCCC3)cc1 [MLS001029582]	> 50 µM
CC(NC(=O)c1cc2c(=O)n3ccccc3nc2n(CC2CCCO2)c1=N)c1ccccc1 (configuration not stated) [MLS001217747]	> 50 µM
CC(N=Nc1ccc(Cl)nn1)c1ccccc1O (configuration not stated) [MLS001233678]	> 50 µM
COc1ccc(CN(C)C(=O)c2cccc(NC(=O)Cc3sc(N4CCCCC4)nc3O)c2)c(OC)c1 [MLS002180955]	21.7 µM
COc1cc(C(=O)NC2CCN(C)CC2)ccc1Nc1ncc2c(n1)N(CCc1ccccc1)CCC(=O)N2C [MLS002232307]	> 50 µM
CC(C)(C)[C@H]1COC(=O)[C@H](NC(=O)OCC2c3ccccc3-c3ccccc32)C/C=C\C[C@@H](CC(=O)N(CCO)Cc2ccccc2)C(=O)N1 [MLS002320431]	> 12.5 µM
O=c1c2ccccc2sc2c(CO)ccc(NCCN3CCCCC3)c12 [MLS002702047]	> 50 µM
CCOP(=O)(CCP(=O)(OCC)OCC)OCC [MLS002702923]	11.8 µM
CN(C)CCn1c2ccccc2c2nc3ccc([N+](=O)[O-])cc3cc21 [N,N-dimethyl-2-(2-nitro-10-indolo[3,2-b]quinolinyl)ethanamine]	> 50 µM
CC(C)C(=O)N1CCN(c2ccccc2NC(=O)COc2ccccc2)CC1 [N-[2-[4-(2-methyl-1-oxopropyl)-1-piperazinyl]phenyl]-2-phenoxyacetamide]	> 50 µM
O=C(Nc1cc(N2CCCCC2)ncn1)c1ccccc1 [N-[6-(1-piperidinyl)-4-pyrimidinyl]benzamide]	> 50 µM
CCn1c(CC=Nc2ccccc2)[n+](CC)c2cc(Cl)c(Cl)cc21 [N-[(E)-2-[5,6-bis(chloranyl)-1,3-diethyl-benzimidazol-3-ium-2-yl]ethenyl]aniline;iodide]	7.29 µM
CCC(=O)c1ccc(OCC(O)Cn2c(C)nc3ccccc32)cc1 (configuration not stated) [SMR000075355]	> 50 µM

Structure (SMILES)	IC50
CCn1c(CC=Nc2ccccc2)[n+](CC)c2ccc(Cl)cc21 [SMR000173759]	26.3 µM
C[n+]1c2n(c3ccccc31)N=C(c1ccccc1)CS2 [SMR000176360]	> 50 µM
CCCCCCCNC1=CC(=O)CC(c2ccccc2)C1 (configuration not stated) [SMR000203844]	> 50 µM
CCc1ccccc1NC(=S)NN=C1C(=O)N(C)c2ccc(S(=O)(=O)N3CCOCC3)cc21 [SMR000207996]	13.3 µM
CC(=O)c1c(C)[nH]c(C(=O)OCC(=O)Nc2sc3c(c2C#N)CCCC3)c1C [SMR000249195]	> 50 µM
CC(C)(C)C1CCC(OC(=O)C[N+]2(C)CCCCC2)CC1 (configuration not stated) [SMR000306329]	> 50 µM
O=C(Cc1csc(Nc2[nH]c(=S)nc3ccccc23)n1)NCCCN1CCN(c2ccccc2F)CC1 [SMR000310923]	> 50 µM
O=C(Cn1c(-c2ccccc2)c[n+]2ccsc12)c1ccc(Br)cc1 [SMR000354292]	> 50 µM
Clc1ccc(-c2c[n+](Cc3ccc(Cl)cc3Cl)c3n2CCCCC3)cc1 [SMR000420192]	> 12.5 µM
COc1ccc(Nc2nc(N3CCOCC3)nc(N3CCOCC3)n2)c(OC)c1 [SMR000515822]	> 50 µM
COc1cc2c(c(OC)c1OC)-c1ccc(N(C)CC(OC)OC)c(=O)cc1[C@@H](NC(C)=O)CC2 [SMR000540275]	> 50 µM
CCOc1ccc(-c2nc(CSCC(=O)NC3CC3)c(C)o2)cc1 [SMR000635235]	> 50 µM
CCOc1ccc(-c2nc(CSCC(=O)NCC3CCCO3)c(C)o2)cc1 (configuration not stated) [SMR000635237]	> 50 µM
Cc1ccc(C)c(-c2csc(NC(=O)C3=COCCO3)n2)c1 [SMR000713303]	> 50 µM
CCCc1nc(SCC(=O)Nc2nnc(CC)s2)c2c(=O)n(C)c(=O)n(C)c2n1 [SMR000806028]	> 50 µM
Brc1ccc(-[n+]2c(-c3ccccc3)cc(-c3ccccc3)cc2-c2ccccc2)cc1 [SMR000841262]	15.6 µM
COc1cc(C(=O)NC2CCN(C)CC2)ccc1Nc1ncc2c(n1)N(C1CCCCC1)CCC(=O)N2C [SMR001307858]	> 50 µM
O=C(CCCCCCC(=O)Nc1ccccc1)NO [Zolinza]	> 50 µM
O=C(COC(=O)c1ccc2[nH]c3c(c2c1)CCCC3)Nc1ccccc1Cl [[2-[(2-chlorophenyl)amino]-2-oxidanylidene-ethyl] 6,7,8,9-tetrahydro-5H-carbazole-3-carboxylate]	> 50 µM
CCOc1ccc2[nH]c3c(N4CCN(C(=O)c5ccco5)CC4)ncnc3c2c1 [[4-(8-ethoxy-5H-pyrimido[5,4-b]indol-4-yl)-1-piperazinyl]-(2-furanyl)methanone]	> 50 µM
Cc1ccc(S(=O)(=O)N2CCN(C(=O)c3ccc(S(=O)(=O)N4CCCC4)cc3)CC2)cc1 [[4-(Pyrrolidine-1-sulfonyl)-phenyl]-[4-(toluene-4-sulfonyl)-piperazin-1-yl]-methanone]	> 50 µM
